According to article PMC6650409, “Modeling the binding of diverse ligands within the Ah receptor ligand binding domain” (Scientific Reports, 2019):
Where a chain is given by its changes, count along the chain named. Read-outs that look alike come from different tables or passages of the source.

Columns and labels:
mAhR [1] = target: T1, mAhR (Mus musculus, UniProt P30561); assay: biochemical; conditions: wild-type mAhR
T1 construct: made in house; host or cells: in vitro transcription/translation (rabbit reticulocyte lysate)
Description: (§1) Wild-type and mutant mAhRs and mARNT were synthesized in vitro in the presence of unlabeled L-methionine, the resulting mAhRs and mARNT translation mixtures and MEDGK (25 mM MOPS (3-(N-morpholino)propanesulfonic acid; pH 7.5), 1 mM EDTA, 1 mM dithiothreitol, 10% (v/v) glycerol, 150 mM KCl) were mixed in a 1:1:8 (v/v/v) ratio and incubated with DMSO (1% final concentration) or the indicated concentration of TCDD or test chemical for 2 hours at room temperature. An aliquot of each incubation was mixed with [^32P]-labeled double-stranded oligonucleotide containing the mouse AhR DNA binding site DRE3 (a dioxin responsive element from the upstream region of the murine Cyp1a1 gene[71]) and protein-DNA complexes resolved by gel retardation analysis as previously described in detail. Gels were visualized using a FLA9000 Fujifilm Imager and protein-DNA complexes quantitated with Fujifilm MultiGauge software. For potency measurements, reactions were incubated with increasing concentrations of the test chemical and the chemical concentration producing half maximal AhR:ARNT:DRE complex formation (EC50) determined.
T1 sequence (P53762 whole entry partner, one chain of several): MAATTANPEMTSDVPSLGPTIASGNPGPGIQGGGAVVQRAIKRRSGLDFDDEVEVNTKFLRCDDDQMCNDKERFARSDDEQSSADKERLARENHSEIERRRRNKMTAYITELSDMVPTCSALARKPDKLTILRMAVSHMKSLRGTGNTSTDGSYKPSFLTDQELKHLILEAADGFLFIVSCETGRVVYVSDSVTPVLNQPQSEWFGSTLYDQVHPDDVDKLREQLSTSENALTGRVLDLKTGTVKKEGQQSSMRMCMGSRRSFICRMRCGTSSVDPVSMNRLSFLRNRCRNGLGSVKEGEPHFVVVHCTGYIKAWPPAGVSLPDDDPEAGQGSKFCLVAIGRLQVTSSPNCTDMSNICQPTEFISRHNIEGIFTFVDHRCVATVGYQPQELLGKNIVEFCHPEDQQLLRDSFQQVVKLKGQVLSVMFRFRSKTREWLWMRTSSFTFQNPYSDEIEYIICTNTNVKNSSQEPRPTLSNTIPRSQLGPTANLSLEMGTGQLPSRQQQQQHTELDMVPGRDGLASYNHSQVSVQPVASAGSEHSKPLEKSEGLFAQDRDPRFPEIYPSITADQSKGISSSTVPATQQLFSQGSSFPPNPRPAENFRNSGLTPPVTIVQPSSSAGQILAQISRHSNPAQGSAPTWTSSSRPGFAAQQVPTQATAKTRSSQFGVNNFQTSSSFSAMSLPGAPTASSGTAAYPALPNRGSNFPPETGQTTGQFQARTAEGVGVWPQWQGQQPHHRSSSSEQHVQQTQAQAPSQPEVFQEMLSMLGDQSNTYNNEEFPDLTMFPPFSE

mAhR [2] = target: T2, mAhR (Mus musculus, UniProt P30561); assay: biochemical; type: binding
T2 construct: made in house; host or cells: in vitro, Promega TNT Quick coupled transcription/translation rabbit reticulocyte lysate
T2 sequence (P30561 10-848): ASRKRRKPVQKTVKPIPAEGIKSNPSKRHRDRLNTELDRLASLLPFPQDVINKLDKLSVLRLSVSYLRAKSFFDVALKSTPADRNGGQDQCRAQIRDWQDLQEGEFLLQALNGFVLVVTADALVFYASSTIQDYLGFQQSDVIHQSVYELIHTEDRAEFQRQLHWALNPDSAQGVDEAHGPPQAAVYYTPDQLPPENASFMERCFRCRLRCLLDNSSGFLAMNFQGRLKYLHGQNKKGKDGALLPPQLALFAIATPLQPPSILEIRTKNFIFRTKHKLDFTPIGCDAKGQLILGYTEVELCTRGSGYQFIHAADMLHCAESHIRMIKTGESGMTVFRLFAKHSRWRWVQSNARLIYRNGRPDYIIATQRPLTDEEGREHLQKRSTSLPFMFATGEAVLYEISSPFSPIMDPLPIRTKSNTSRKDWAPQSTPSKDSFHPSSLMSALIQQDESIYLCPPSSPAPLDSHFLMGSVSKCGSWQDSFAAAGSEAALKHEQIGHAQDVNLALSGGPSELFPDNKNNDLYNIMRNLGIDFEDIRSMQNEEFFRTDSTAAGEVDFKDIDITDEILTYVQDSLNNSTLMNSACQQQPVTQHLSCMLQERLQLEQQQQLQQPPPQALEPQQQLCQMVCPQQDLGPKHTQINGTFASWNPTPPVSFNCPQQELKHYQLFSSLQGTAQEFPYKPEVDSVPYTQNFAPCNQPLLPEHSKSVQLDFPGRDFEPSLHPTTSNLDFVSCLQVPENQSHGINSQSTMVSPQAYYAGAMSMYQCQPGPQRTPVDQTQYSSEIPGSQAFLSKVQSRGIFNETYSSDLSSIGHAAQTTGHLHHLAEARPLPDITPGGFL
Description: [^3H]TCDD specific binding to wild-type or mutant mAhRs synthesized in vitro using the Promega TNT Quick coupled transcription/translation rabbit reticulocyte lysate kit (Madison, WI) was carried out as previously described. [^3H]TCDD specific binding was determined by subtracting the amount of [^3H]TCDD bound to unprogrammed lysate (nonspecific binding) from the total amount of [^3H]TCDD binding to lysate containing in vitro expressed AhR. The amount of [^3H]TCDD specific binding remaining in the presence of the indicated competitor chemical was expressed as a percent of the total [^3H]TCDD specific binding. The relative binding affinity (IC50) of each chemical was determined from concentration-dependent competitive inhibition curves obtained using [^3H]TCDD and increasing concentrations of each test chemical and the mean IC50 value was determined using three-parameter non-linear regression.

L302A mutant AhR = target: T3, L302A mutant AhR (Mus musculus, UniProt P30561, L302A); assay: AhR DNA binding (gel retardation) assay, L302A mutant AhR; type: biochemical; conditions: L302A mutation; single maximal ligand concentration; in words
T3 construct: made in house; host or cells: in vitro transcription/translation (rabbit reticulocyte lysate)
T3 sequence (P30561 10-848 L302A): T2 sequence (P30561 10-848) with L293A
Description: as §1

[3] = Table S1, mean of nine independent reactions, read-out: AhR DNAB EC50
[4] = gel retardation, values in text, read-out: relative potency to stimulate AhR DNA binding in vitro (EC50)
[5] = Table S1, wild-type mAhR, mean of nine independent reactions, read-out: AhR LB IC50
[6] = Table S1, read-out: AhR DNAB -LogEC50 (converted)
[7] = competition with [3H]TCDD, wild-type mAhR, values in text, read-out: relative AhR ligand binding affinity (IC50)

Row | SMILES | EC50 (mAhR [1]; [3]) [nM] | EC50 (mAhR [1]; [4]) [nM] | IC50 (mAhR [2]; [5]) [nM] | IC50 (mAhR [2]; Table S1, wild-type mAhR, read-out: AhR LB -LogIC50 (converted)) [nM] | ligand-stimulated AhR DNA binding (L302A mutant AhR) | EC50 (mAhR [1]; [6]) [nM] | IC50 (mAhR [2]; [7]) [nM] | EC50 (mAhR [1]; AhR DNAB EC50, Table S1, mean of nine independent reactions) [nM] | EC50 (mAhR [1]; relative potency to stimulate AhR DNA binding in vitro (EC50), gel retardation, values in text) [nM] | IC50 (mAhR [2]) [nM]
1 | Clc1cc2oc3cc(Cl)c(Cl)cc3c2cc1Cl [TCDF, 2,3,7,8-tetrachlorodibenzofuran] | 4.55 | 4.5 | 20.1 | 20 | eliminated or greatly reduced |  |  |  |  | 
2 | Cc1ccc2cc3c(ccc4ccccc43)c3c2c1CC3 [3MC, 3-methylcholanthrene] |  |  | 1.58 |  |  | 6.03 | 1.6 |  |  | 
3 | c1ccc2c(c1)cc1ccc3cccc4ccc2c1c34 [BaP, Benzo(a)pyrene] | 38.9 | 39 |  |  | eliminated or greatly reduced |  | 617 |  |  | 
4 | O=c1cc(-c2ccccc2)oc2ccc3ccccc3c12 [BNF] |  | 138 | 7.24 |  |  |  | 7.2 |  |  | 
5 | O=Cc1c2[nH]c3ccccc3c2cc2[nH]c3ccccc3c12 [FICZ, 6-formylindolo[3,2-b]carbazole] |  | 4.25 | 1.02 |  |  |  | 1 |  |  | 
6 | Clc1cc2c(cc1Cl)Oc1cc(Cl)c(Cl)cc1O2 [TCDD, 2,3,7,8-tetrachlorodibenzo-p-dioxin] |  |  |  |  | eliminated or greatly reduced |  | 1 | 7.53 | 7.5 | 1
7 | c1ccc2c(c1)ccc1cc3c(ccc4ccccc43)cc12 [DBA, dibenz(a,h)anthracene] | 4.02 |  |  |  |  | 3.98 | 7.6 |  |  | 
8 | Clc1ccc(-c2cc(Cl)c(Cl)c(Cl)c2)cc1Cl [PCB126, 3,3′4,4′5-pentachlorobiphenyl] | 6.51 | 6.5 | 5.89 |  |  |  | 5.9 |  |  | 
